# Measurements taken from patent publication US9598448B2, “Osmium (II) arene imino anti-cancer complexes” (University of Warwick, priority 2010, dated 2017).
# pIC50: −log10 of the molar value.
# Tests used:
# [1] = tested on: A2780/cis ovarian (cisplatin-resistant); assay: MTT growth inhibition assay, A2780/cis; format: cell-based, human; details: 96 h
# Protocol: (§1) Tumor cell growth inhibition was assessed using the MTT assay.^13 2×10^3 cells were inoculated into a 96-well plate and incubated overnight at 37° C. in a humidified atmosphere containing 5% CO2. Complexes were solubilised in DMSO as above, and then diluted in complete cell culture medium to give a broad range of concentrations. Cisplatin was included in the screen as a comparator. Medium was removed from each well and replaced with complex or control solutions, and the plates then incubated for a further 96 hours. After 96 h culture medium was removed and 200 μL of 0.5 mg mL^−1 MTT solution (Sigma) in complete medium added to each well. Following further 4 h incubation, the solution was removed from each well and 150 μL of DMSO (Sigma) added to solubilise the formazan crystals resulting from MTT conversion. Absorbance values for the resulting solutions were read at 550 nm on a microplate reader and cell survival calculated as the absorbance of treated cells divided by the control. Results were expressed in terms of IC50 values (i.e. concentration of compound required to kill 50% of cells) and all experiments were performed in triplicate.
# (§2) The following human cancer cell lines were cultured in RPMI 1640 cell culture medium supplemented with 1 mM sodium pyruvate, 2 mM L-glutamine and 10% fetal bovine serum (all from Sigma): A549 non-small cell lung, HCT-116 colon, MCF-7 breast, PC-3 prostate (all from LGC Promochem, Teddington, UK), A2780/cis ovarian (cisplatin-resistant) and RT-112 bladder (both from ECACC, Salisbury, UK).
# [2] = tested on: HCT-116 colon; assay: MTT growth inhibition assay, HCT-116; format: cell-based, human; details: 96 h
# Protocol: as §1, §2
# [3] = tested on: human tumor 60-cell line panel; assay: NCI/DTP human tumor 60-cell line panel screen; format: cell-based; details: NCI 60-cell line panel, MG-MID, 48 h
# Protocol: The cells were treated for 48 h at five concentrations ranging from 0.01 to 100 μM. Three endpoints were calculated: GI 50 (the concentration inhibits cell growth by 50%):
# TGI (the concentration inhibits cell growth by 100%)
# LC 50 (the concentration kills original cells by 50%)
# MG-MID (full-panel mean-graph midpoint).
# [4] = tested on: Leukemia HL-60 (TB); assay: NCI 60-cell line screen, HL-60 (TB); format: cell-based, human; details: 48 h
# Protocol: (§3) The cells were treated for 48 h at five concentrations ranging from 0.01 to 100 μM. Three endpoints were calculated: GI 50 (the concentration inhibits cell growth by 50%): […]
# [5] = tested on: Leukemia MOLT-4; assay: NCI 60-cell line screen, MOLT-4; format: cell-based, human; details: Leukemia MOLT-4, 48 h
# Protocol: as §3
# [6] = tested on: colon cancer OoLO 205; assay: NCI 60-cell line screen, colon cancer line; format: cell-based, human; details: colon cancer OoLO 205, 48 h
# Protocol: as §3
# [7] = tested on: HCT-116 colon adenocarcinoma s.c. xenograft model; assay: In vivo efficacy in HCT-116 s.c. xenograft model
# [8] = 40.0 mg kg^−1, single intravenous injection
substance,measurement,setting,value
[(η^6-p-cym)Os(Azpy-NMe2)I]PF6 [Complex 6],pIC50,[1],> 6.52
same,pIC50,[2],> 6.52
same,GI50,[3],280 nM
same,LC50,[3],6300 nM
same,TGI,[3],1170 nM
same,GI50,[4],< 50 nM
same,GI50,[5],< 50 nM
same,GI50,[6],< 50 nM
same,Maximum % weight loss,[7]; [8],8%
same,Median tumour doubling time,[7]; [8],6.2 days
same,day of maximum % weight loss,[7]; [8],1 days
same,toxicity,[7]; single i.v. 40 mg/kg,negligible toxicity
same,tumour growth delay,"[7]; single i.v. 40 mg/kg, compared to the untreated control (p<0.01)",statistically significant tumour growth delay
